Results on two molecules are retold here after patent publication US20090209525A1, “ENABLING METHODS TO IDENTIFY ALLOSTERIC MODULATORS OF RECEPTOR ACTIVITY” (priority 2006, published 2009).

The structures appear in SMILES notation. Where a chain is given by its changes, count along the chain named.

Holding throughout (assay type): cell-based
In one assay the target is T1, rat M1 S109A receptor (Rattus norvegicus, UniProt P08482, S109A).
T1 construct: expressed in transfected cells
T1 sequence (P08482 1-460 S109A): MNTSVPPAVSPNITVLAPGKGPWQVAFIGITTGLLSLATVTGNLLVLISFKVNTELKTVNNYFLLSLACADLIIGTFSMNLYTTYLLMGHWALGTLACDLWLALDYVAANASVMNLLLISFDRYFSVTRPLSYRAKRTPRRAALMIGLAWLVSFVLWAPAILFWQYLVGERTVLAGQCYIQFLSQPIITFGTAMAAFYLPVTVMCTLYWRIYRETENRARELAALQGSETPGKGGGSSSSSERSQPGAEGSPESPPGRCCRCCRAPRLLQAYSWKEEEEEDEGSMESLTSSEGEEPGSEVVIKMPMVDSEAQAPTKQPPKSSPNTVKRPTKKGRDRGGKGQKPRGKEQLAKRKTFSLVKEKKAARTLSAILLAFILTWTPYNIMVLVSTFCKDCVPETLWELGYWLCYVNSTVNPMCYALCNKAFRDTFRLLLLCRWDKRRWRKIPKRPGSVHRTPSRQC
In words: Phosphatidyl inositol hydrolysis assay, S109A. The conditions noted are these: Table 6; for Shift: EC50 S109A divided by EC50 wild-type; for EC50 / Eff (%): PI hydrolysis, S109A; for Eff (%): relative to wild-type response to that ligand.

Another assay concerns the target T2, rat M1 W101A receptor (Rattus norvegicus, UniProt P08482, W101A).
T2 construct: expressed in transfected cells
T2 sequence (P08482 1-460 W101A): T1 sequence (P08482 1-460 S109A) with W101A, A109S
In words: Phosphatidyl inositol hydrolysis assay, W101A. The conditions noted are these: Table 6; for Shift: EC50 W101A divided by EC50 wild-type; for EC50 / Eff (%): PI hydrolysis, W101A; for Eff (%): relative to wild-type response to that ligand (clozapine: title says fold-response).

For assay [1], the target named is T3, rat M1 wild-type receptors (Rattus norvegicus, UniProt P08482).
T3 construct: expressed in transfected cells
T3 sequence (P08482 1-460): T1 sequence (P08482 1-460 S109A) with A109S
Kind of assay: Phosphatidyl inositol hydrolysis assay, wild-type. The conditions noted are these: for Shift: EC50 divided by EC50 wild-type (reference).

Setting [2] is: Table 5, PI hydrolysis, maximum response relative to carbachol.
Setting [3] is: Table 6, PI hydrolysis, M1 WT, maximum response, normalized.

Take `CCCCC1CCN(CCCN2C(=O)COc3cc(F)ccc32)CC1` [AC-260584, 4-[3-(4-Butyl-piperidin-1-yl)-propyl]-7-fluoro-4H-benzo [1,4]oxazin-3-one]: the Shift amounted to 1 on rat M1 S109A receptor, 0.03 on rat M1 W101A receptor and 1 in assay [1] (Table 6). The EC50 (in general, the concentration giving half of the maximal effect) was 79.4 nM at rat M1 S109A receptor; 1.58 nM on rat M1 W101A receptor; 50.1 nM in assay [1] (Table 5, PI hydrolysis, wild-type). Also, the “Eff (%)” value on rat M1 S109A receptor came out at 85 ± 11%; at rat M1 W101A receptor, 112 ± 6%; in assay [1] (setting [2]), 99 ± 20%; in assay [1] (setting [3]) it was 100 ± 7%. In addition, the pEC50 (commonly −log10 of the EC50, conventionally taken in molar units) in assay [1] (Table 6, PI hydrolysis, M1 WT) is on record as 7.3 ± 0.1.
On to `Clc1ccc2c(c1)N=C(N1CCNCC1)c1ccccc1N2` [NDMC, 8-chloro-11-(1-piperazinyl)-5H-dibenzo [b,e] [1,4] diazepine], for which the Shift stood at 4 at rat M1 S109A receptor, 6 on rat M1 W101A receptor and 1 in assay [1] (Table 6). Besides, the EC50 on rat M1 S109A receptor was 200 nM; on rat M1 W101A receptor, 316 nM; in assay [1] (Table 6, PI hydrolysis, M1 WT) it was 100 nM. For the same molecule, the “Eff (%)” value at rat M1 S109A receptor worked out at 47 ± 17%; at rat M1 W101A receptor, 54 ± 11%; in assay [1] (setting [2]), 44 ± 17%; in assay [1] (setting [3]), 55 ± 8%.
